Blank lines part the entries; values can stand above or below the compound they belong to.
What was measured:
5-HT7 receptor = 5-HT7 receptor (Homo sapiens, UniProt P34969); conditions: Table 1; cited from earlier work
H1 receptor = H1 receptor (Homo sapiens, UniProt P35367); conditions: Table 1; cited from earlier work
5-HT2C receptor = molecular target: T1, 5-HT2C receptor (Homo sapiens, UniProt P28335); conditions: Table 1; cited from earlier work
T1 sequence (P28335 33-458): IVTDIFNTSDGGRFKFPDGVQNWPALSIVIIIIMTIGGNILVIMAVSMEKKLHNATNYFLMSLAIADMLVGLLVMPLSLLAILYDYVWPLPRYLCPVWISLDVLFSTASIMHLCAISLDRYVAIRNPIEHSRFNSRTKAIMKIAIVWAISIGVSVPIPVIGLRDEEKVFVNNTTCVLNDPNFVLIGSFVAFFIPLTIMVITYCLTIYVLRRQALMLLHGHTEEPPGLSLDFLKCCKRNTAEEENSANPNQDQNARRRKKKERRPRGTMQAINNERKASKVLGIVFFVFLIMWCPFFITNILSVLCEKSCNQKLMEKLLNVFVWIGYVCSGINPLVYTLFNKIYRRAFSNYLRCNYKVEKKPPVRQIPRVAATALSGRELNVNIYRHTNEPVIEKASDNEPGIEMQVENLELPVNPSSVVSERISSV

D4 receptor = molecular target: T2, D4 receptor (Homo sapiens, UniProt P21917); conditions: Table 1; cited from earlier work
T2 sequence (P21917 1-419): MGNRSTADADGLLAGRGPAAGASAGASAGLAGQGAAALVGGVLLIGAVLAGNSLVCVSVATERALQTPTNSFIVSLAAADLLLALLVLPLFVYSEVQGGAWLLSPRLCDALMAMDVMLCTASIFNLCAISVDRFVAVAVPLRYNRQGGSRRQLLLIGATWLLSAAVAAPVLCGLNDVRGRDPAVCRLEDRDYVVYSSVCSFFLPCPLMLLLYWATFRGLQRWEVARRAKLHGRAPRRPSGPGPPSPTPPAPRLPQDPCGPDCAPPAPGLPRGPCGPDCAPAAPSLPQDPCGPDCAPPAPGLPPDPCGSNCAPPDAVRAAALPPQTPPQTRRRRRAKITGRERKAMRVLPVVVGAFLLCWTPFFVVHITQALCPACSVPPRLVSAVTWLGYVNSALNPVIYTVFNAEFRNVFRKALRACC

5-HT2A receptor = 5-HT2A receptor (Homo sapiens, UniProt P28223); conditions: Table 1; cited from earlier work
Sequence of 5-HT2A receptor (P28223 whole entry): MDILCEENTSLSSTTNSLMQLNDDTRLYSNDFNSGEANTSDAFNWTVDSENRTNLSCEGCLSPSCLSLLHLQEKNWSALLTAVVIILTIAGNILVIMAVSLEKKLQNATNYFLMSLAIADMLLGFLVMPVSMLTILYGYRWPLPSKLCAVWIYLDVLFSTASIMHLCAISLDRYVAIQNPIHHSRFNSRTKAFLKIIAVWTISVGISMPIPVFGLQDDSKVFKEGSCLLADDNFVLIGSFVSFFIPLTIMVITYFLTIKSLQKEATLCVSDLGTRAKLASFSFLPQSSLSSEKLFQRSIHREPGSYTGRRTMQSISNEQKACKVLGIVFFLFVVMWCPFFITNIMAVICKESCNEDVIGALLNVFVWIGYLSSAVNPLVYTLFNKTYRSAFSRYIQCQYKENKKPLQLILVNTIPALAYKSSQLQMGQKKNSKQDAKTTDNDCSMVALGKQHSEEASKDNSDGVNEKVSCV

5-HT2B receptor [1] = molecular target: T3, 5-HT2B receptor (Homo sapiens, UniProt P41595); conditions: Table 1; cited from earlier work
T3 sequence (P41595 whole entry): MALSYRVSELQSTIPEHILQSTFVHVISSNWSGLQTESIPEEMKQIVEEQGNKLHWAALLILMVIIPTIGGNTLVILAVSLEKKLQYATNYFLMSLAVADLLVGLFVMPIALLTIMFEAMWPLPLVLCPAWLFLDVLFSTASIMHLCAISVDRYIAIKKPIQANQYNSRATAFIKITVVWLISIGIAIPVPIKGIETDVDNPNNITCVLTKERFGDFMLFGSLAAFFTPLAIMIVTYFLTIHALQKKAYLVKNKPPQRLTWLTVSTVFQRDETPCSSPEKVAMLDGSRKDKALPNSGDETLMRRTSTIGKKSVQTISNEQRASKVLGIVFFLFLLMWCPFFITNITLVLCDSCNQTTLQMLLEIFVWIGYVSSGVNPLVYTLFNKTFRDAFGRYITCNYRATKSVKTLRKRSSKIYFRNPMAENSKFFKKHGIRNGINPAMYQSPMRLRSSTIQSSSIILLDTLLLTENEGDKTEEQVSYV

D2 receptor [2] = molecular target: T4, D2 receptor (Homo sapiens, UniProt P14416); conditions: Table 1; cited from earlier work
T4 sequence (P14416 whole entry): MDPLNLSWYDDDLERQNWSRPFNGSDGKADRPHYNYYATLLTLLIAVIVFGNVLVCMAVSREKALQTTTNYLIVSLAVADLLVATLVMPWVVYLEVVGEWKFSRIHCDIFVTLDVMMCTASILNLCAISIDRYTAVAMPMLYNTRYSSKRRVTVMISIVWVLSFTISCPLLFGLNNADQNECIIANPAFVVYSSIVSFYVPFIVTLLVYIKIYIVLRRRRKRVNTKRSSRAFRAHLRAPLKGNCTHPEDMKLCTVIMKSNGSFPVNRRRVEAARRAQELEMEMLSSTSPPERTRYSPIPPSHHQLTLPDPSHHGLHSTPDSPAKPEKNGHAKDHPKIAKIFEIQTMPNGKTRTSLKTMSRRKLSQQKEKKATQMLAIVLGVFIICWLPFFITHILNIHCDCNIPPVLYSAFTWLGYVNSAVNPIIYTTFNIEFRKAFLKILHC

5-HT1A receptor = molecular target: T5, 5-HT1A receptor (Homo sapiens, UniProt P08908); conditions: Table 1, cited from earlier work
T5 sequence (P08908 1-422): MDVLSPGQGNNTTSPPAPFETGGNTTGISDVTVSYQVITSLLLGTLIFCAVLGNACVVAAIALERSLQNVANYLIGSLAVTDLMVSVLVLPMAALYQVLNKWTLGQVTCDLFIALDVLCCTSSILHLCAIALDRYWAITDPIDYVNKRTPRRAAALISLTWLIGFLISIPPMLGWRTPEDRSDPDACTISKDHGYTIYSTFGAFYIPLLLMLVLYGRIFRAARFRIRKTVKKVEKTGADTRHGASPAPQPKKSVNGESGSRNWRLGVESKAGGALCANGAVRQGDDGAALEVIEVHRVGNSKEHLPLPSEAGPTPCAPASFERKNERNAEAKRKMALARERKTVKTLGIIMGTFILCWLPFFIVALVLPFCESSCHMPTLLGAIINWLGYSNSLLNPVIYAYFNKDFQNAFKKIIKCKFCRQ

D2 receptor [3] = molecular target: T4, D2 receptor; experiment: NIMH-PDSP receptor binding affinity, D2; conditions: Table 1; MTA = Missed 50% of threshold inhibition
5-HT2B receptor [4] = molecular target: T3, 5-HT2B receptor; experiment: NIMH-PDSP receptor binding affinity, 5-HT2B; conditions: Table 1; MTA = Missed 50% of threshold inhibition

Sequence of H1 receptor (P35367 whole entry): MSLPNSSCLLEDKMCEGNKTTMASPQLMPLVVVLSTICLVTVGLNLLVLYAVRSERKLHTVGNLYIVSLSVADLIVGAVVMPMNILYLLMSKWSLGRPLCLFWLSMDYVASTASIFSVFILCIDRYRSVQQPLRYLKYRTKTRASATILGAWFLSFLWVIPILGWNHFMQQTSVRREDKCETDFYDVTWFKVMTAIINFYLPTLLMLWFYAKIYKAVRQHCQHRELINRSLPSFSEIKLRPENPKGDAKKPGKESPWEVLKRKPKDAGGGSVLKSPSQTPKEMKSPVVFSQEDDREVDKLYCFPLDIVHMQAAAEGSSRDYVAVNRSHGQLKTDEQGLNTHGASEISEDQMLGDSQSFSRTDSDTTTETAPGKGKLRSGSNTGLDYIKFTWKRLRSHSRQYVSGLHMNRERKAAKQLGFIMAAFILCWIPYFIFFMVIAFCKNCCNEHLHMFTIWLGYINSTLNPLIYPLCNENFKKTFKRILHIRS
Sequence of 5-HT7 receptor (P34969 whole entry): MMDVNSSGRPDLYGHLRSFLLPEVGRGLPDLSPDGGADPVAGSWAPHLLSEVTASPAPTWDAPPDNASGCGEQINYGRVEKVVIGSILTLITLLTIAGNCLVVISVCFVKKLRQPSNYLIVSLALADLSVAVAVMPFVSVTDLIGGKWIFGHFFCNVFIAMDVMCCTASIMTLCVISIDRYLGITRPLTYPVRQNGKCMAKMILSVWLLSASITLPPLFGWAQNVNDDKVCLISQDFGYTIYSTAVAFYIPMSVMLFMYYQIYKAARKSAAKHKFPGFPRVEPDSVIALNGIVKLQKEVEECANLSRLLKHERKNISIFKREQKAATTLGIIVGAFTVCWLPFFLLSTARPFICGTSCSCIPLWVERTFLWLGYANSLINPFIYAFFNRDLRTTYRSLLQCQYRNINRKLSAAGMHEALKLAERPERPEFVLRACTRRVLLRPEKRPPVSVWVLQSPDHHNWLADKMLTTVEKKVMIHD

Compound: c1ccc2c(c1)CCN(CCCCc1nc3ccccc3s1)C2 [Compound 1a, 2-(4-(3,4-Dihydroisoquinolin-2(1H)-yl)butyl)benzo[d]thiazole]
pKi±SEM 5-HT7 (5-HT7 receptor): 7.66±0.06
pKi±SEM H1 (H1 receptor): 6.23±0.08
pKi±SEM 5-HT2C (5-HT2C receptor): 6.04±0.04
pKi±SEM D4 (D4 receptor): 7.17±0.05
pKi±SEM 5-HT2A (5-HT2A receptor): 5.77±0.06
pKi±SEM 5-HT2B (5-HT2B receptor [1]): 7.74±0.05
pKi±SEM D2 (D2 receptor [2]): 6.78±0.09
pKi±SEM 5-HT1A (5-HT1A receptor): 8±0.03
Ki (5-HT1A receptor; read-out: Ki (nM) 5-HT1A, MTA = Missed 50% of threshold inhibition): 10 nM

Ki (nM) D2 (D2 receptor [3]): MTA
Compound: Br.c1ccc2c(c1)CCN(CCCc1nc3ccccc3s1)C2 [Compound 1b, 2-(3-(3,4-Dihydroisoquinolin-2(1H)-yl)propyl)benzo[d]thiazole hydrobromide]

Ki (nM) 5-HT2B (5-HT2B receptor [4]): MTA
Compound: Cl.Cl.c1ccc2c(c1)CCN(CCCc1nc3ccccc3[nH]1)C2 [Compound 1d, 2-(3-(1H-benzo[d]imidazol-2-yl)propyl)-1,2,3,4-tetrahydroisoquinoline]

— paper PMC5079764 (Bioorganic & medicinal chemistry, 2016)
